From patent publication US8883841B2, “Oncogenic ras-specific cytotoxic compound and methods of use thereof” (The Board of Regents of the University of Texas System, priority 2005, dated 2014)
Read-outs that look alike come from different tables or passages of the source.

Legend:
[1] = tested on: H460 cells; details: Table 1, value is the negative log10 of mol/L
[2] = tested on: M14; assay: NCI in-vitro testing, M14 (Melanoma); details: for GI50 / CC50: Homo sapiens; for CC50: M14, read-out: LC50
[3] = tested on: K-562; assay: NCI in-vitro testing, K-562 (Leukemia); details: for GI50 / CC50: Homo sapiens; for CC50: K562, read-out: LC50; for TGI / Percent Growth: K-562
[4] = tested on: U251; assay: NCI in-vitro testing, U251 (CNS Cancer); details: for GI50 / CC50: Homo sapiens; for CC50: U-251, read-out: LC50; for TGI / Percent Growth: U251
[5] = tested on: SF-539; assay: NCI in-vitro testing, SF-539 (CNS Cancer); details: for GI50 / CC50: Homo sapiens; for CC50: SF-539, read-out: LC50
[6] = tested on: SNB-75; assay: NCI in-vitro testing, SNB-75 (CNS Cancer); details: for GI50 / CC50: Homo sapiens; for CC50: SNB-75, read-out: LC50
[7] = tested on: SK-MEL-2; assay: NCI in-vitro testing, SK-MEL-2 (Melanoma); details: for GI50 / CC50: Homo sapiens; for CC50: SK-MEL-2, read-out: LC50
[8] = tested on: HL-60(TB); assay: NCI in-vitro testing, HL-60(TB) (Leukemia); details: for TGI / Percent Growth: HL-60(TB); for GI50 / CC50: Homo sapiens; for CC50: HL-60, read-out: LC50
[9] = tested on: BT-549; assay: NCI in-vitro testing, BT-549 (Breast Cancer); details: for GI50 / CC50: Homo sapiens; for CC50: BT-549, read-out: LC50
[10] = tested on: OVCAR-5; assay: NCI in-vitro testing, OVCAR-5 (Ovarian Cancer); details: for GI50 / CC50: Homo sapiens; for CC50: OVCAR-5, read-out: LC50
[11] = tested on: MDA-MB-231/ATCC; assay: NCI in-vitro testing, MDA-MB-231/ATCC (Breast Cancer); details: for GI50 / CC50: Homo sapiens; for CC50: MDA-MB-231, read-out: LC50; for TGI / Percent Growth: MDA-MB-231/ATCC
[12] = tested on: Ovcar443; assay: Cell viability, Ovcar443 ovary cancer cells; format: cell-based
[13] = tested on: Hey; assay: Cell viability, Hey ovary cancer cells; format: cell-based
[14] = M14, Log10 Concentration −4.0 Molar
[15] = M14, Log10 Concentration −5.0 Molar
[16] = M14, Log10 Concentration −6.0 Molar
[17] = M14, Log10 Concentration −7.0 Molar
[18] = M14, Log10 Concentration −8.0 Molar
[19] = SF-539, Log10 Concentration −4.0 Molar
[20] = SF-539, Log10 Concentration −5.0 Molar
[21] = SF-539, Log10 Concentration −6.0 Molar
[22] = SF-539, Log10 Concentration −7.0 Molar
[23] = SF-539, Log10 Concentration −8.0 Molar
[24] = SNB-75, Log10 Concentration −4.0 Molar
[25] = SNB-75, Log10 Concentration −5.0 Molar
[26] = SNB-75, Log10 Concentration −6.0 Molar
[27] = SNB-75, Log10 Concentration −7.0 Molar
[28] = SNB-75, Log10 Concentration −8.0 Molar
[29] = SK-MEL-2, Log10 Concentration −4.0 Molar
[30] = SK-MEL-2, Log10 Concentration −5.0 Molar
[31] = SK-MEL-2, Log10 Concentration −6.0 Molar
[32] = SK-MEL-2, Log10 Concentration −7.0 Molar
[33] = SK-MEL-2, Log10 Concentration −8.0 Molar
[34] = BT-549, Log10 Concentration −4.0 Molar
[35] = BT-549, Log10 Concentration −5.0 Molar
[36] = BT-549, Log10 Concentration −6.0 Molar
[37] = BT-549, Log10 Concentration −7.0 Molar
[38] = BT-549, Log10 Concentration −8.0 Molar
[39] = OVCAR-5, Log10 Concentration −4.0 Molar
[40] = OVCAR-5, Log10 Concentration −5.0 Molar
[41] = OVCAR-5, Log10 Concentration −6.0 Molar
[42] = OVCAR-5, Log10 Concentration −7.0 Molar
[43] = OVCAR-5, Log10 Concentration −8.0 Molar

O=Cc1cn(Cc2cccc(Cl)c2)c2ccccc12 [Oncrasin K027, 1-(3-chlorobenzyl)-1H-indole-3-carbaldehyde]
IC50 in H460 cells ([1]; listed as K27): 7
IC50 in H460 cells [1]: 8.43
GI50 ([2]; M14): 5.16 µM
CC50 [2]: 55.9 µM
TGI ([2]; M14): 2.03E−5 Molar
Percent Growth [2, 14]: −79%
Percent Growth [2, 15]: 35%
Percent Growth [2, 16]: 87%
Percent Growth [2, 17]: 94%
Percent Growth [2, 18]: 95%
GI50 ([3]; K562): 0.0192 µM
CC50 [3]: 54.5 µM
TGI [3]: 1.26E−5 Molar
Percent Growth ([3]; Log10 Concentration −4.0 Molar): −71%
Percent Growth ([3]; Log10 Concentration −5.0 Molar): 8%
Percent Growth ([3]; Log10 Concentration −6.0 Molar): 87%
Percent Growth ([3]; Log10 Concentration −7.0 Molar): 100%
Percent Growth ([3]; Log10 Concentration −8.0 Molar): 114%
GI50 ([4]; U-251): 2.46 µM
CC50 [4]: > 100 µM
TGI [4]: 2.53E−5 Molar
Percent Growth ([4]; Log10 Concentration −4.0 Molar): −35%
Percent Growth ([4]; Log10 Concentration −5.0 Molar): 25%
Percent Growth ([4]; Log10 Concentration −6.0 Molar): 56%
Percent Growth ([4]; Log10 Concentration −7.0 Molar): 84%
Percent Growth ([4]; Log10 Concentration −8.0 Molar): 93%
GI50 ([5]; SF-539): 10.9 µM
CC50 [5]: 86.6 µM
TGI ([5]; SF-539): 2.70E−5 Molar
Percent Growth [5, 19]: −73%
Percent Growth [5, 20]: 55%
Percent Growth [5, 21]: 104%
Percent Growth [5, 22]: 110%
Percent Growth [5, 23]: 108%
GI50 ([6]; SNB-75): 7.64 µM
CC50 [6]: 62.8 µM
TGI ([6]; SNB-75): 2.31E−5 Molar
Percent Growth [6, 24]: −73%
Percent Growth [6, 25]: 42%
Percent Growth [6, 26]: 112%
Percent Growth [6, 27]: 119%
Percent Growth [6, 28]: 118%
GI50 ([7]; SK-MEL-2): 15.8 µM
CC50 [7]: 48.2 µM
TGI ([7]; SK-MEL-2): 5.94E−8 Molar
Percent Growth [7, 29]: −64%
Percent Growth [7, 30]: −20%
Percent Growth [7, 31]: 67%
Percent Growth [7, 32]: 84%
Percent Growth [7, 33]: 98%
TGI [8]: 1.28E−5 Molar
Percent Growth ([8]; Log10 Concentration −4.0 Molar): −78%
Percent Growth ([8]; Log10 Concentration −5.0 Molar): 9%
Percent Growth ([8]; Log10 Concentration −6.0 Molar): 89%
Percent Growth ([8]; Log10 Concentration −7.0 Molar): 85%
Percent Growth ([8]; Log10 Concentration −8.0 Molar): 95%
GI50 ([8]; HL-60): 2.1 µM
CC50 [8]: 48.1 µM
TGI ([9]; BT-549): 1.73E−5 Molar
Percent Growth [9, 34]: −85%
Percent Growth [9, 35]: 28%
Percent Growth [9, 36]: 97%
Percent Growth [9, 37]: 116%
Percent Growth [9, 38]: 110%
GI50 ([9]; BT-549): 4.82 µM
CC50 [9]: 488 µM
GI50 ([10]; OVCAR-5): < 0.01 µM
CC50 [10]: > 100 µM
TGI ([10]; OVCAR-5): 3.72E−7 Molar
Percent Growth [10, 39]: −50%
Percent Growth [10, 40]: −23%
Percent Growth [10, 41]: −7%
Percent Growth [10, 42]: 10%
Percent Growth [10, 43]: 43%
GI50 ([11]; MDA-MB-231): 11 µM
CC50 [11]: > 100 µM
TGI [11]: 4.23E−5 Molar
Percent Growth ([11]; Log10 Concentration −4.0 Molar): −32%
Percent Growth ([11]; Log10 Concentration −5.0 Molar): 55%
Percent Growth ([11]; Log10 Concentration −6.0 Molar): 109%
Percent Growth ([11]; Log10 Concentration −7.0 Molar): 120%
Percent Growth ([11]; Log10 Concentration −8.0 Molar): 105%

OCc1cn(Cc2ccc(Cl)cc2)c2ccccc12 [Oncrasin K060, 1H-Indole-3-methanol, 1-[(4-chlorophenyl)methyl]-]
IC50 [12]: 2.51 µM
IC50 [13]: 10 µM
GI50 ([2]; M14): 6.16 µM
CC50 [2]: 55.9 µM
GI50 ([2]; M14, read-out: Log10 GI50 (converted)): 5.13 µM
TGI ([2]; M14): 2.03E−5 Molar
Percent Growth [2, 14]: −79%
Percent Growth [2, 15]: 35%
Percent Growth [2, 16]: 87%
Percent Growth [2, 17]: 94%
Percent Growth [2, 18]: 95%
GI50 ([3]; K562): 19.2 µM
CC50 [3]: 6.46 µM
GI50 ([3]; K562, read-out: Log10 GI50 (converted)): 1.91 µM
TGI [3]: 1.26E−6 Molar
Percent Growth ([3]; Log10 Concentration −4.0 Molar): −71%
Percent Growth ([3]; Log10 Concentration −5.0 Molar): 8%
Percent Growth ([3]; Log10 Concentration −6.0 Molar): 67%
Percent Growth ([3]; Log10 Concentration −7.0 Molar): 100%
Percent Growth ([3]; Log10 Concentration −8.0 Molar): 114%
GI50 ([4]; U-251): 2.46 µM
CC50 [4]: > 100 µM
GI50 ([4]; U-251, read-out: Log10 GI50 (converted)): 2.45 µM
TGI [4]: 2.63E−5 Molar
Percent Growth ([4]; Log10 Concentration −4.0 Molar): −35%
Percent Growth ([4]; Log10 Concentration −5.0 Molar): 25%
Percent Growth ([4]; Log10 Concentration −6.0 Molar): 55%
Percent Growth ([4]; Log10 Concentration −7.0 Molar): 84%
Percent Growth ([4]; Log10 Concentration −8.0 Molar): 93%
GI50 ([5]; SF-539): 10.9 µM
CC50 [5]: 60 µM
GI50 ([5]; SF-539, read-out: Log10 GI50 (converted)): 11 µM
TGI ([5]; SF-539): 2.70E−5 Molar
Percent Growth [5, 19]: −73%
Percent Growth [5, 20]: 55%
Percent Growth [5, 21]: 104%
Percent Growth [5, 22]: 110%
Percent Growth [5, 23]: 108%
GI50 ([6]; SNB-75): 76.4 µM
CC50 [6]: 62.8 µM
GI50 ([6]; SNB-75, read-out: Log10 GI50 (converted)): 7.59 µM
TGI ([6]; SNB-75): 2.31E−5 Molar
Percent Growth [6, 24]: −73%
Percent Growth [6, 25]: 42%
Percent Growth [6, 26]: 112%
Percent Growth [6, 27]: 119%
Percent Growth [6, 28]: 118%
GI50 ([7]; SK-MEL-2): 1.58 µM
CC50 [7]: 48.2 µM
GI50 ([7]; SK-MEL-2, read-out: Log10 GI50 (converted)): 1.58 µM
TGI ([7]; SK-MEL-2): 5.94E−6 Molar
Percent Growth [7, 29]: −64%
Percent Growth [7, 30]: −20%
Percent Growth [7, 31]: 67%
Percent Growth [7, 32]: 84%
Percent Growth [7, 33]: 98%
TGI [8]: 1.28E−5 Molar
Percent Growth ([8]; Log10 Concentration −4.0 Molar): −78%
Percent Growth ([8]; Log10 Concentration −5.0 Molar): 9%
Percent Growth ([8]; Log10 Concentration −6.0 Molar): 89%
Percent Growth ([8]; Log10 Concentration −7.0 Molar): 85%
Percent Growth ([8]; Log10 Concentration −8.0 Molar): 95%
GI50 ([8]; HL-60): 2.1 µM
CC50 [8]: 4.31 µM
GI50 ([8]; HL-60, read-out: Log10 GI50 (converted)): 2.09 µM
TGI ([9]; BT-549): 1.73E−5 Molar
Percent Growth [9, 34]: −85%
Percent Growth [9, 35]: 26%
Percent Growth [9, 36]: 97%
Percent Growth [9, 37]: 118%
Percent Growth [9, 38]: 110%
GI50 ([9]; BT-549): 4.62 µM
CC50 [9]: 4.88 µM
GI50 ([9]; BT-549, read-out: Log10 GI50 (converted)): 4.57 µM
GI50 ([10]; OVCAR-5): < 0.01 µM
CC50 [10]: > 100 µM
GI50 ([10]; OVCAR-5, read-out: Log10 GI50 (converted)): < 0.01 µM
TGI ([10]; OVCAR-5): 3.72E−7 Molar
Percent Growth [10, 39]: −50%
Percent Growth [10, 40]: −23%
Percent Growth [10, 41]: −7%
Percent Growth [10, 42]: 10%
Percent Growth [10, 43]: 43%
GI50 ([11]; MDA-MB-231): 11 µM
CC50 [11]: > 100 µM
GI50 ([11]; MDA-MB-231, read-out: Log10 GI50 (converted)): 11 µM
TGI [11]: 4.23E−5 Molar
Percent Growth ([11]; Log10 Concentration −4.0 Molar): −32%
Percent Growth ([11]; Log10 Concentration −5.0 Molar): 53%
Percent Growth ([11]; Log10 Concentration −6.0 Molar): 109%
Percent Growth ([11]; Log10 Concentration −7.0 Molar): 120%
Percent Growth ([11]; Log10 Concentration −8.0 Molar): 105%
